Assays:
Test in all cases: relative viability (nuclei count vs DMSO), 5 days (fraction); higher = more cells survive
[1] = compound: COc1cc2c(Oc3ccc4[nH]c(C)cc4c3F)ncnc2cc1OCCCN1CCCC1 [Cediranib] + C[C@@H](Oc1cc(-c2cnn(C3CCNCC3)c2)cnc1N)c1c(Cl)ccc(F)c1Cl [Crizotinib] (partner 1 µM)
Summary of the method: (§1)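 Each reported value is a median over duplicate plates. It expresses relative viability: treated-well nuclei count divided by vehicle-well nuclei count. Lung cancer cell lines in 1536-well plates were dosed by pin tool a day after seeding, alone with one drug or with a fixed anchor-drug dose plus five library-drug doses (not always all listed) in √10 steps, and nuclei were counted after 5 days.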

[2] = compound: Nc1ncn([C@H]2C[C@H](O)[C@@H](CO)O2)c(=O)n1 [Decitabine] + COc1cc2c(Oc3ccc(NC(=O)C4(C(=O)Nc5ccc(F)cc5)CC4)cc3F)ccnc2cc1OCCCN1CCOCC1 [Foretinib] (partner 0.25 µM)
Summary of the method: as §1

[3] = compound: O=C(C[C@H]1NCCC[C@@H]1O)Cn1cnc2cc(Br)c(Cl)cc2c1=O (racemic) [Halofuginone] + Cc1nc(Nc2ncc(C(=O)Nc3c(C)cccc3Cl)s2)cc(N2CCN(CCO)CC2)n1 [Dasatinib] (partner 0.075 µM)
Summary of the method: as §1

[4] = compound: O=C(C[C@H]1NCCC[C@@H]1O)Cn1cnc2cc(Br)c(Cl)cc2c1=O (racemic) [Halofuginone] + O=C(c1cc(Cc2n[nH]c(=O)c3ccccc23)ccc1F)N1CCN(C(=O)C2CC2)CC1 [Olaparib] (partner 8 µM)
Summary of the method: as §1

## UMC-11
[1]; first compound 0.04 µM
  relative viability: 0.612
[1]; first compound 0.1265 µM
  relative viability: 0.573
[1]; first compound 0.4 µM
  relative viability: 0.512
[1]; first compound 1.265 µM
  relative viability: 0.656
[1]; first compound 4 µM
  relative viability: 0.427
[2]; first compound 0.04 µM
  relative viability: 0.906
[2]; first compound 0.1265 µM
  relative viability: 0.79
[2]; first compound 0.4 µM
  relative viability: 0.511
[2]; first compound 1.265 µM
  relative viability: 0.399
[2]; first compound 4 µM
  relative viability: 0.372
[3]; first compound 0.001 µM
  relative viability: 0.472
[3]; first compound 0.003162 µM
  relative viability: 0.427
[3]; first compound 0.01 µM
  relative viability: 0.407
[3]; first compound 0.03162 µM
  relative viability: 0.357
[3]; first compound 0.1 µM
  relative viability: 0.293
[4]; first compound 0.001 µM
  relative viability: 0.426
[4]; first compound 0.003162 µM
  relative viability: 0.381
[4]; first compound 0.01 µM
  relative viability: 0.566
[4]; first compound 0.03162 µM
  relative viability: 0.471
[4]; first compound 0.1 µM
  relative viability: 0.226
